# Results from US9029531B2 (Agios Pharmaceuticals, Inc., priority 2012, dated 2015).
# Biological target: T1, glutaminase (GAC) (Homo sapiens, UniProt O94925)
# T1 sequence (O94925 55-598 isoform O94925-3 limits assumed): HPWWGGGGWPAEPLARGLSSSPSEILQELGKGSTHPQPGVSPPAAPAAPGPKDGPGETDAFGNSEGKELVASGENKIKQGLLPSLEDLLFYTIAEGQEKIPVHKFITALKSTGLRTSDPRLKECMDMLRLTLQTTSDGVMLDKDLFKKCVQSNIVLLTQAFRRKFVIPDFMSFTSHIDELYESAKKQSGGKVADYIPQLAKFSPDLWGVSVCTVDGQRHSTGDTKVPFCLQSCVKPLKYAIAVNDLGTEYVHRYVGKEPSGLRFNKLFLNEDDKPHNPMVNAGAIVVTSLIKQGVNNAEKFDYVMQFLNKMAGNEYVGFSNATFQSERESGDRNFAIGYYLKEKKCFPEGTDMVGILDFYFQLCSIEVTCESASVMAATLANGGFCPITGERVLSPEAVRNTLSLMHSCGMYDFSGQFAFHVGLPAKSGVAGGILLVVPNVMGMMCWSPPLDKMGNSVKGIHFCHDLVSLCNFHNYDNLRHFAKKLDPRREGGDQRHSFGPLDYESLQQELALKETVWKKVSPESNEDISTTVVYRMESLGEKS
# Experiment: Glutaminase coupled endpoint enzymatic assay (Example A)
# Format: biochemical
# Settings: inhibition of glutaminase; assay of Example A or Example B
# Text: In certain embodiments, exemplary compounds of Formula I include the compounds described in Table 1 and in the Examples. A compound described herein may be tested for its ability to inhibit glutaminase, e.g., by an assay as described in the Examples. For simplicity, the inhibition activity of these compounds is represented as an IC50 tested in an assay of Example A or Example B in Table 1. […] “N/A” refers to compounds wherein the IC50 is unavailable.
# In this example, the enzymatic activity of glutaminase is measured through a coupled endpoint assay. Glutamine and phosphate are supplied to GAC at a concentration equal to Km and AC50, respectively, and GAC concentration is adjusted to give a linear reaction for 60 minutes. The glutamate produced is converted to 2-OG by a kinetic excess of glutamate dehydrogenase. This second step is configured for 2×Km for NAD, since excess NAD is inhibitory. However, a kinetic excess of the third coupling enzyme, diaphorase, recycles NAD from NADH to keep the NAD concentration constant during the timecourse of the assay. Diaphorase, also supplied in kinetic excess, oxidizes NADH produced by GDH back to NAD with the concomitant reduction of rezasurin to the highly fluorescent resorufin. Resorufin in measured after the assay is stopped with SDS by Ex544/Em590. A reduction in the signal indicates inhibition of some component of the coupled enzyme system. Prospective hits are counterscreened against GDH/diaphorase alone to remove hits to the coupling enzyme system in a second assay.
# 2. Buffers • 2× Buffer (300 mM NaCl, 100 mM HEPES pH 8.5, 0.1% BSA, 0.5 mM EDTA, 100 mM sodium phosphate pH 8.5) • 5× Substrate Mix (1× Buffer final concentration, with 13 mM glutamine, 100 μM resazurin, 50 μg/ml diaphorase) • 1.2× Enzyme Mix (1× Buffer final concentration, with 0.875 μg/ml GAC, 1.56 mM NAD, 6.25 units/ml GDH) • Stop Mix (6% SDS in ddH2O) Reaction Procedure • 1. Add 1 μl compound in 100% DMSO • 2. Add 40 μl of Enzyme Mix and incubate for 60 minute at room temperature • 3. Add 10 μl of Substrate Mix to start reaction • 4. Stop reaction with 25 μl of 6% SDS and read Ex544 Em 590
row,SMILES,IC50
1,"O=C(Cc1ccccc1[N+](=O)[O-])Nc1nnc([C@H]2CCC[C@H](c3nnc(NC(=O)Cc4ccccc4[N+](=O)[O-])s3)C2)s1 [Compound 57, N,N′-(5,5′-((1S,3S)-cyclohexane-1,3-diyl)bis(1,3,4-thiadiazole-5,2-diyl))bis(2-(2-nitrophenyl)acetamide)]",100 to 500 nM
2,Nc1nnc([C@@H]2CCC[C@@H](c3nnc(NC(=O)Cc4ccccn4)s3)C2)s1 [Compound 58],1000 to 2000 nM
3,"O=C(Cc1cccs1)Nc1nnc([C@H]2CCC[C@H](c3nnc(NC(=O)Cc4cccs4)s3)C2)s1 [Compound 59, N,N′-(5,5′-((1S,3S)-cyclohexane-1,3-diyl)bis(1,3,4-thiadiazole-5,2-diyl))bis(2-(thiophen-2-yl)acetamide)]",< 100 nM
4,"CSCC(=O)Nc1nnc([C@H]2CCC[C@H](c3nnc(NC(=O)CSC)s3)C2)s1 [Compound 60, N,N′-(5,5′-((1S,3S)-cyclohexane-1,3-diyl)bis(1,3,4-thiadiazole-5,2-diyl))bis(2-(methylthio)acetamide)]",500 to 1000 nM
5,COc1ccccc1CC(=O)Nc1nnc(C2CCC(c3nnc(NC(=O)Cc4ccccc4OC)s3)C2)s1 (stereo not shown) [Compound 67],100 to 500 nM
6,COc1cccc(CC(=O)Nc2nnc(C3CCC(c4nnc(NC(=O)Cc5cccc(OC)c5)s4)C3)s2)c1 (stereo not shown) [Compound 68],100 to 500 nM
7,"COc1ccccc1CC(=O)Nc1nnc([C@H]2CCC[C@H](c3nnc(NC(=O)Cc4ccccn4)s3)C2)s1 [Compound 79, 2-(2-methoxyphenyl)-N-(5-((1S,3S)-3-(5-(2-(pyridin-2-yl)acetamido)-1,3,4-thiadiazol-2-yl)cyclohexyl)-1,3,4-thiadiazol-2-yl)acetamide]",< 100 nM
8,"COc1cccc(CC(=O)Nc2nnc([C@H]3CCC[C@H](c4nnc(NC(=O)Cc5ccccn5)s4)C3)s2)c1 [Compound 81, 2-(3-methoxyphenyl)-N-(5-((1S,3S)-3-(5-(2-(pyridin-2-yl)acetamido)-1,3,4-thiadiazol-2-yl)cyclohexyl)-1,3,4-thiadiazol-2-yl)acetamide]",< 100 nM
9,"COc1cccc(CC(=O)Nc2nnc([C@H]3CCC[C@H](c4nnc(NC(C)=O)s4)C3)s2)c1 [Compound 90, N-(5-((1S,3S)-3-(5-acetamido-1,3,4-thiadiazol-2-yl)cyclohexyl)-1,3,4-thiadiazol-2-yl)-2-(3-methoxyphenyl)acetamide]",100 to 500 nM
10,"CC(=O)Nc1nnc([C@H]2CCC[C@H](c3nnc(NC(=O)Cc4ccccn4)s3)C2)s1 [Compound 93, N-(5-((1S,3S)-3-(5-acetamido-1,3,4-thiadiazol-2-yl)cyclohexyl)-1,3,4-thiadiazol-2-yl)-2-(pyridin-2-yl)acetamide]",< 100 nM
11,"COc1ccccc1CC(=O)Nc1nnc([C@H]2CCC[C@H](c3nnc(NC(C)=O)s3)C2)s1 [Compound 94, N-(5-((1S,3S)-3-(5-acetamido-1,3,4-thiadiazol-2-yl)cyclohexyl)-1,3,4-thiadiazol-2-yl)-2-(2-methoxyphenyl)acetamide]",< 100 nM
12,N#Cc1ccccc1CC(=O)Nc1nnc(C2CCC(c3nnc(NC(=O)Cc4ccccc4C#N)s3)C2)s1 (stereo not shown) [Compound 95],100 to 500 nM
13,N#Cc1ccc(CC(=O)Nc2nnc(C3CCC(c4nnc(NC(=O)Cc5ccc(C#N)cc5)s4)C3)s2)cc1 (stereo not shown) [Compound 96],100 to 500 nM
14,N#Cc1cccc(CC(=O)Nc2nnc(C3CCC(c4nnc(NC(=O)Cc5cccc(C#N)c5)s4)C3)s2)c1 (stereo not shown) [Compound 97],100 to 500 nM
15,O=C(Cc1ccccn1)Nc1nnc([C@@H]2CCC[C@H](c3nnc(NC(=O)Cc4ccccn4)s3)C2)s1 [Compound 102],100 to 500 nM
16,O=C(Cc1cccnc1)Nc1nnc(C2CCC(c3nnc(NC(=O)Cc4cccnc4)s3)C2)s1 (stereo not shown) [Compound 103],100 to 500 nM
17,COc1cccc(CC(=O)Nc2nnc([C@@H]3CC[C@H](c4nnc(NC(=O)Cc5cccc(OC)c5)s4)C3)s2)c1 [Compound 107],100 to 500 nM
18,COc1cccc(CC(=O)Nc2nnc([C@@H]3CC[C@@H](c4nnc(NC(=O)Cc5cccc(OC)c5)s4)C3)s2)c1 [Compound 108],< 100 nM
19,COc1ccc(CC(=O)Nc2nnc(C3CCC(c4nnc(NC(=O)Cc5ccc(OC)cc5)s4)C3)s2)cc1 (stereo not shown) [Compound 109],100 to 500 nM

row,SMILES,IC50
1,O=C(Cc1cccc([N+](=O)[O-])c1)Nc1nnc(C2CCC(c3nnc(NC(=O)Sc4cccc([N+](=O)[O-])c4)s3)C2)s1 (stereo not shown) [Compound 110],100 to 500 nM
2,COc1ccccc1CC(=O)Nc1nnc([C@@H]2CC[C@@H](c3nnc(NC(=O)Cc4ccccc4OC)s3)C2)s1 [Compound 117],500 to 1000 nM
3,"O=C(Cc1cccc(Br)n1)Nc1nnc([C@H]2CCC[C@H](c3nnc(NC(=O)Cc4cccc(Br)n4)s3)C2)s1 [Compound 118, N,N′-(5,5′-((1S,3S)-cyclohexane-1,3-diyl)bis(1,3,4-thiadiazole-5,2-diyl))bis(2-(6-bromopyridin-2-yl)acetamide)]",< 100 nM
4,COc1ccnc(CC(=O)Nc2nnc([C@@H]3CCC[C@@H](c4nnc(NC(=O)Cc5cc(OC)ccn5)s4)C3)s2)c1 [Compound 119],< 100 nM
5,COc1cccc(CC(=O)Nc2nnc(C3CCCCC(c4nnc(NC(=O)Cc5cccc(OC)c5)s4)C3)s2)c1 (stereo not shown) [Compound 120],500 to 1000 nM
6,COc1ccc(CC(=O)Nc2nnc(C3CCCCC(c4nnc(NC(=O)Cc5ccc(OC)cc5)s4)C3)s2)cc1 (stereo not shown) [Compound 121],1000 to 2000 nM
7,O=C(Cc1ccccn1)Nc1nnc(C2CCCCC(c3nnc(NC(=O)Cc4ccccn4)s3)C2)s1 (stereo not shown) [Compound 122],1000 to 2000 nM
8,COc1ccccc1CC(=O)Nc1nnc(C2CCCCC(c3nnc(NC(=O)Cc4ccccc4OC)s3)C2)s1 (stereo not shown) [Compound 123],1000 to 2000 nM
9,N#Cc1cccc(CC(=O)Nc2nnc(C3CCCCC(c4nnc(NC(=O)Cc5cccc(C#N)c5)s4)C3)s2)c1 (stereo not shown) [Compound 124],1000 to 2000 nM
10,COc1ccccc1CC(=O)Nc1nnc([C@@H]2CCCC[C@H](c3nnc(NC(=O)Cc4ccccc4OC)s3)C2)s1 [Compound 125],1000 to 2000 nM
11,O=C(Cc1cccnc1)Nc1nnc(C2CCCCC(c3nnc(NC(=O)Cc4cccnc4)s3)C2)s1 (stereo not shown) [Compound 126],100 to 500 nM
12,N#Cc1ccccc1CC(=O)Nc1nnc(C2CCCCC(c3nnc(NC(=O)Cc4ccccc4C#N)s3)C2)s1 (stereo not shown) [Compound 127],500 to 1000 nM
13,COc1cccc(CC(=O)Nc2nnc([C@@H]3CCCC[C@H](c4nnc(NC(=O)Cc5cccc(OC)c5)s4)C3)s2)c1 [Compound 128],500 to 1000 nM
14,COc1cccc(CC(=O)Nc2nnc([C@@H]3CCCC[C@@H](c4nnc(NC(=O)Cc5cccc(OC)c5)s4)C3)s2)c1 [Compound 129],500 to 1000 nM
15,COc1ccc(CC(=O)Nc2nnc([C@@H]3CCCC[C@@H](c4nnc(NC(=O)Cc5ccc(OC)cc5)s4)C3)s2)cc1 [Compound 130],1000 to 2000 nM
16,"O=C(Cc1cccc2c1OCO2)Nc1nnc([C@H]2CCC[C@H](c3nnc(NC(=O)Cc4cccc5c4OCO5)s3)C2)s1 [Compound 218, N,N′-(5,5′-((1S,3S)-cyclohexane-1,3-diyl)bis(1,3,4-thiadiazole-5,2-diyl))bis(2-(benzo[d][1,3]dioxol-4-yl)acetamide)]",< 100 nM
17,"O=C(Cc1cccc(OC(F)(F)F)c1)Nc1nnc([C@H]2CCC[C@H](c3nnc(NC(=O)Cc4cccc(OC(F)(F)F)c4)s3)C2)s1 [Compound 219, N,N′-(5,5′-((1S,3S)-cyclohexane-1,3-diyl)bis(1,3,4-thiadiazole-5,2-diyl))bis(2-(3-(trifluoromethoxy)phenyl)acetamide)]",1000 to 2000 nM
18,"O=C(Cc1cccc(Br)c1)Nc1nnc([C@H]2CCC[C@H](c3nnc(NC(=O)Cc4cccc(Br)c4)s3)C2)s1 [Compound 220, N,N′-(5,5′-((1S,3S)-cyclohexane-1,3-diyl)bis(1,3,4-thiadiazole-5,2-diyl))bis(2-(3-bromophenyl)acetamide)]",100 to 500 nM
